Data taken from article PMC6208348 (Nature Communications, 2018).

What was measured:
[1] = target: T1, L. longbeachae LUSH SH2 domain (Legionella longbeachae, UniProt D3HPG5); format: binding
T1 construct: gene LLO_0448

L. longbeachae LeSH = target: T2, L. longbeachae LeSH (Legionella longbeachae, UniProt D3HJY4)
T2 construct: gene LLO_2327
T2 sequence (D3HJY4 1-167 limits assumed): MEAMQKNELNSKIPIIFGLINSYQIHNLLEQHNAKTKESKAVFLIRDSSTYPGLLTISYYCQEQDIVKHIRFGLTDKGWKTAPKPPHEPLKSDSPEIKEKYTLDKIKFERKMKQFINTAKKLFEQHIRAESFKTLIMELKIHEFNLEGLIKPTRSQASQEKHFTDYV

T1 sequence (D3HPG5 3-171 limits assumed): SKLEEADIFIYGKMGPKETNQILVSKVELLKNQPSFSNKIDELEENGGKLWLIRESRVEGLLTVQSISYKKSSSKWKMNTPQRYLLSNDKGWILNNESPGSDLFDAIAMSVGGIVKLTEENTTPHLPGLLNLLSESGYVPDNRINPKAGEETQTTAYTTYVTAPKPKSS

Compound | Kd [1] [nM] | X-ray crystal structure of complex (L. longbeachae LeSH)
N[C@@H](Cc1ccc(OP(=O)(O)O)cc1)C(=O)NCC(=O)O [pY-G dipeptide] | 810 | 
N[C@@H](Cc1ccc(OP(=O)(O)O)cc1)C(=O)O [phosphotyrosine] |  | crystal structures of LeSH in complex with three different pTyr ligands, including the phosphotyrosine itself
